The results in this text go back to PubChem BioAssay AID318 (DTP/NCI, 2004).

Molecules are shown by their SMILES. Where “and” joins values, the source holds several entries; their conditions need not be identical. Equal entries are not always repeated. Inconclusive results and toxic doses are left out. Starred links: 1 amine or outer side, 2 acyl side, 3 side chain; linkers in the order of their positions; H or OH if unused. Positions of bridges follow the written chain, without caps; N, C: chain ends. Non-standard residues stand in square brackets, D forms with d. Residues, ends and D or L forms follow the SMILES beside them. Chains are numbered I, II in the order given. Actinocin(9to1) = Cc1c2oc3c(C)ccc(C(=O)[*:1])c3nc-2c(C(=O)[*:2])c(N)c1=O; aThr = C[C@H](O)[C@H](N)C(=O)O; NMeV = CN[C@H](C(=O)O)C(C)C; Sar = CNCC(=O)O

The assay deals with BDF1 mice, P815 leukemia ip, survival T/C. Nature of the assay: NCI In Vivo Anticancer Drug Screen. Data for tumor model P815 Mast Cell Leukemia (Ascitic) (intraperitoneal) in B6D2F1 (BDF1) mice. The following applies: higher = longer survival. As to the method:
The antitumor activity of compounds was measured in mice bearing transplantable tumors. Survival or tumor size were measured and the results are expressed as the measurement made in the treated group (T) divided by the measurement made in the vehicle treated control group (C). The tumor model used in this assay is P815 Mast Cell Leukemia (Ascitic) (intraperitoneal) in B6D2F1 (BDF1) mice

The mark [1] stands for this setting: endpoint: survival time, mean or median, dose: 5.0 mg/kg/injection, schedule: Q01DX010 (ip), vehicle: saline.
The mark [2] stands for this setting: endpoint: survival time, mean or median, dose: 10.0 mg/kg/injection, schedule: Q01DX010 (ip), vehicle: saline.
Where [3] appears, read: endpoint: survival time, mean or median, dose: 20.0 mg/kg/injection, schedule: Q01DX010 (ip), vehicle: saline.
Where [4] appears, read: endpoint: survival time, mean or median, dose: 40.0 mg/kg/injection, schedule: Q01DX010 (ip), vehicle: saline.
Setting [5] is: endpoint: survival time, mean or median, dose: 6.25 mg/kg/injection, schedule: Q01DX010 (ip), vehicle: saline.
[6] abbreviates: endpoint: survival time, mean or median, dose: 12.5 mg/kg/injection, schedule: Q01DX010 (ip), vehicle: saline.
Setting [7] is: endpoint: survival time, mean or median, dose: 62.5 mg/kg/injection, schedule: Q01DX010 (ip), vehicle: saline.
Setting [8] is: endpoint: survival time, mean or median, dose: 125.0 mg/kg/injection, schedule: Q01DX010 (ip), vehicle: saline.
Setting [9] is: endpoint: survival time, mean or median, dose: 250.0 mg/kg/injection, schedule: Q01DX010 (ip), vehicle: saline.
Setting [10] is: endpoint: survival time, mean or median, dose: 500.0 mg/kg/injection, schedule: Q01DX010 (ip), vehicle: saline.
Setting [11] is: endpoint: survival time, mean or median, dose: 25.0 mg/kg/injection, schedule: Q01DX010 (ip), vehicle: saline.
Setting [12] is: endpoint: survival time, mean or median, dose: 50.0 mg/kg/injection, schedule: Q01DX010 (ip), vehicle: saline.
The mark [13] stands for this setting: endpoint: survival time, mean or median, dose: 100.0 mg/kg/injection, schedule: Q01DX010 (ip), vehicle: saline.
Where [14] appears, read: endpoint: survival time, mean or median, dose: 200.0 mg/kg/injection, schedule: Q01DX010 (ip), vehicle: saline.
The mark [15] stands for this setting: endpoint: survival time, mean or median, dose: 0.5 mg/kg/injection, schedule: Q01DX010 (ip), vehicle: saline.
The mark [16] stands for this setting: endpoint: survival time, mean or median, dose: 1.0 mg/kg/injection, schedule: Q01DX010 (ip), vehicle: saline.
[17] abbreviates: endpoint: survival time, mean or median, dose: 2.0 mg/kg/injection, schedule: Q01DX010 (ip), vehicle: saline.
Where [18] appears, read: endpoint: survival time, mean or median, dose: 4.0 mg/kg/injection, schedule: Q01DX010 (ip), vehicle: saline.
[19] abbreviates: endpoint: survival time, mean or median, dose: 8.0 mg/kg/injection, schedule: Q01DX010 (ip), vehicle: saline.

With `Cc1c2oc3c(C)ccc(C(=O)N[C@@H]4C(=O)N[C@H](C(C)C)C(=O)N5CCC[C@H]5C(=O)N(C)CC(=O)N(C)[C@@H](C(C)C)C(=O)O[C@H]4C)c3nc-2c(C(=O)N[C@@H]2C(=O)N[C@H](C(C)C)C(=O)N3CCC[C@H]3C(=O)N(C)CC(=O)N(C)[C@@H](C(C)C)C(=O)O[C@H]2C)c(N)c1=O` (I: [aThr][dV]P[Sar][NMeV] / II: [aThr][dV]P[Sar][NMeV]; ester I:1-I:C, II:1-II:C; linker I:N-II:N via Actinocin(9to1)), the T/C by setting is: (endpoint: median survival time, dose: 180.0 micrograms/kg/injection, schedule: Q04DX003 (ip), vehicle: saline + alcohol) 122 % of control; (endpoint: median survival time, dose: 300.0 micrograms/kg/injection, schedule: Q04DX003 (ip), vehicle: saline + alcohol) 105 % of control; (endpoint: median survival time, dose: 500.0 micrograms/kg/injection, schedule: Q04DX003 (ip), vehicle: saline + alcohol) 90 % of control.

Turning to `N[C@@H](Cc1ccc(N(CCCl)CCCl)cc1)C(=O)O`, the T/C by setting is: (endpoint: survival time, mean or median, dose: 1.0 mg/kg/injection, schedule: Q01DX015 (ip), vehicle: carboxymethylcellulose (CMC)) 231 % of control; (endpoint: survival time, mean or median, dose: 2.0 mg/kg/injection, schedule: Q01DX015 (ip), vehicle: carboxymethylcellulose (CMC)) 257 % of control; (endpoint: survival time, mean or median, dose: 4.0 mg/kg/injection, schedule: Q01DX015 (ip), vehicle: carboxymethylcellulose (CMC)) 182 % of control and 195 % of control; (endpoint: survival time, mean or median, dose: 8.0 mg/kg/injection, schedule: Q01DX015 (ip), vehicle: carboxymethylcellulose (CMC)) 103 % of control.

`CCCCn1cnc2c(=S)nc[nH]c21`: the T/C reads like this: (endpoint: survival time, mean or median, dose: 16.0 mg/kg/injection, schedule: Q01DX010 (ip), vehicle: saline) 105 % of control; (endpoint: survival time, mean or median, dose: 32.0 mg/kg/injection, schedule: Q01DX010 (ip), vehicle: saline) 100 % of control; (endpoint: survival time, mean or median, dose: 64.0 mg/kg/injection, schedule: Q01DX010 (ip), vehicle: saline) 111 % of control; (endpoint: survival time, mean or median, dose: 128.0 mg/kg/injection, schedule: Q01DX010 (ip), vehicle: saline) 105 % of control.

On to `CC/C(=C(/CC)c1ccc(O)cc1)c1ccc(O)cc1`, for which the T/C (endpoint: survival time, mean or median, dose: 12.5 mg/kg/injection, schedule: Q01DX010 (sc), vehicle: steriod suspending solution) is 100 % of control and 104 % of control; the T/C (endpoint: survival time, mean or median, dose: 25.0 mg/kg/injection, schedule: Q01DX010 (sc), vehicle: steriod suspending solution) was 100 % of control and 109 % of control; the T/C (endpoint: survival time, mean or median, dose: 50.0 mg/kg/injection, schedule: Q01DX010 (sc), vehicle: steriod suspending solution) was 100 % of control and 104 % of control; the T/C (endpoint: survival time, mean or median, dose: 100.0 mg/kg/injection, schedule: Q01DX010 (sc), vehicle: steriod suspending solution) was 100 % of control and 109 % of control.

With `Nc1nc(=S)c2[nH]cnc2[nH]1`, the T/C reads like this: (endpoint: survival time, mean or median, dose: 2.5 mg/kg/injection, schedule: Q01DX010 (ip), vehicle: saline) 95 % of control; under setting [1], 122 % of control; under setting [2], 90 % of control and 118 % of control.

As for `OCC1OC(n2cnc3c(=S)nc[nH]c32)C(O)C1O` (stereo not drawn), the T/C runs as follows: under setting [3], 104 % of control and 116 % of control; under setting [4], 91 % of control and 108 % of control; (endpoint: survival time, mean or median, dose: 80.0 mg/kg/injection, schedule: Q01DX010 (ip), vehicle: saline) 95 % of control and 116 % of control.

As to `NC(Cc1ccc(N(CCCl)CCCl)cc1)C(=O)O` (stereo not drawn), the T/C (endpoint: survival time, mean or median, dose: 4.0 mg/kg/injection, schedule: Q01DX010 (ip), vehicle: other) is 120 % of control and the T/C (endpoint: survival time, mean or median, dose: 8.0 mg/kg/injection, schedule: Q01DX010 (ip), vehicle: other) was 100 % of control.

As for `O=c1[nH]c(=O)n(C2CC(O)C(CO)O2)cc1F` (stereo not drawn), the T/C was 100 % of control under setting [1]; 100 % of control and 105 % of control under setting [2]; 111 % of control and 116 % of control under setting [3]; 111 % of control under setting [4].

For `O=C(O)CCCc1ccc(N(CCCl)CCCl)cc1`, the T/C (endpoint: survival time, mean or median, dose: 3.13 mg/kg/injection, schedule: Q01DX010 (ip), vehicle: saline) was 100 % of control; the T/C under setting [5] was 105 % of control; the T/C under setting [6] is 122 % of control.

As for `CC(=O)N(C)C`, the T/C was 91 % of control and 100 % of control under setting [7]; 100 % of control and 108 % of control under setting [8]; 91 % of control under setting [9]; 95 % of control and 104 % of control under setting [10].

On to `CNc1nc(Nc2ccc(C3=NCCN3)cc2)nc(Nc2ccc(C3=NCCN3)cc2)n1`, for which the T/C reads like this: (endpoint: survival time, mean or median, dose: 13.3 mg/kg/injection, schedule: Q01DX010 (ip), vehicle: saline) 108 % of control; under setting [3], 108 % of control; (endpoint: survival time, mean or median, dose: 30.0 mg/kg/injection, schedule: Q01DX010 (ip), vehicle: saline) 108 % of control; (endpoint: survival time, mean or median, dose: 45.0 mg/kg/injection, schedule: Q01DX010 (ip), vehicle: saline) 116 % of control.

Turning to `O=NN(CCCl)C(=O)NCCCl`, the T/C under setting [5] was 245 % of control and 263 % of control; the T/C under setting [6] is 159 % of control.

Consider `CCOC(=O)c1[nH]c2ccccc2c1CN(CCCl)CCCl`, for which the T/C under setting [2] was 105 % of control, the T/C under setting [3] is 115 % of control and the T/C under setting [4] was 115 % of control.

As for `O=C(Nc1ccc(C2=NCCN2)cc1)c1ccc(C(=O)Nc2ccc(C3=NCCN3)cc2)c(NC(=O)c2ccc(C(=O)Nc3cc(C(=O)Nc4ccc(C5=NCCN5)cc4)ccc3C(=O)Nc3ccc(C4=NCCN4)cc3)cc2)c1`, the T/C reads like this: under setting [11], 95 % of control; under setting [12], 108 % of control; under setting [13], 95 % of control; under setting [14], 104 % of control.

For `CSc1ncnc2nc[nH]c12`, the T/C is, setting by setting: under setting [11], 100 % of control; under setting [12], 100 % of control and 115 % of control; under setting [13], 100 % of control and 105 % of control; under setting [14], 105 % of control and 110 % of control.

As for `Nc1nc(F)nc2c1ncn2C1OC(CO)C(O)C1O` (stereo not drawn), the T/C was 100 % of control under setting [15]; 99 % of control (endpoint: survival time, mean or median, dose: 0.75 mg/kg/injection, schedule: Q01DX015 (ip), vehicle: saline); 100 % of control and 112 % of control under setting [16]; 98 % of control (endpoint: survival time, mean or median, dose: 1.5 mg/kg/injection, schedule: Q01DX015 (ip), vehicle: saline); 100 % of control and 112 % of control under setting [17]; 100 % of control and 112 % of control under setting [18]. In addition, the T/C under setting [19] is 88 % of control.

`Cc1nc(CON)cs1`: the T/C runs as follows: (endpoint: median survival time, dose: 50.0 mg/kg/injection, schedule: Q01DX015 (ip), vehicle: saline) 90 % of control; (endpoint: median survival time, dose: 100.0 mg/kg/injection, schedule: Q01DX015 (ip), vehicle: saline) 94 % of control.

Turning to `NC(=O)c1[nH]nc(C2OC(CO)C(O)C2O)c1O` (stereo not drawn), the T/C is 102 % of control (endpoint: median survival time, dose: 1.56 mg/kg/injection, schedule: Q04DX003 (ip), vehicle: saline); 104 % of control (endpoint: median survival time, dose: 2.59 mg/kg/injection, schedule: Q04DX003 (ip), vehicle: saline); 103 % of control (endpoint: median survival time, dose: 4.32 mg/kg/injection, schedule: Q04DX003 (ip), vehicle: saline); 121 % of control (endpoint: median survival time, dose: 7.2 mg/kg/injection, schedule: Q04DX003 (ip), vehicle: saline); 114 % of control (endpoint: median survival time, dose: 12.0 mg/kg/injection, schedule: Q04DX003 (ip), vehicle: saline); 104 % of control (endpoint: median survival time, dose: 20.0 mg/kg/injection, schedule: Q04DX003 (ip), vehicle: saline).

`CCCCNc1ncnc2c1cnn2C`: the T/C runs as follows: (endpoint: survival time, mean or median, dose: 31.25 mg/kg/injection, schedule: Q01DX010 (ip), vehicle: saline) 95 % of control and 100 % of control; under setting [7], 108 % of control.

Regarding `CCOC(N)=O`, the T/C reads like this: under setting [8], 100 % of control; under setting [9], 100 % of control and 118 % of control; under setting [10], 100 % of control and 104 % of control.

For the compound `C=CC(CN1CC1)OC(C)=O` (stereo not drawn), the T/C was 94 % of control under setting [17], 100 % of control under setting [18] and 100 % of control under setting [19].

As to `NC(=O)N(CCCl)N=O`, the T/C under setting [15] was 175 % of control, the T/C under setting [16] was 210 % of control, the T/C under setting [17] was 100 % of control and the T/C under setting [18] is 105 % of control.
